The subject of this assay is Plasmodium berghei. The assay is described as follows: Luciferase/luciferin-expressing antifolate-resistant parasites were used to infect a culture of HepG2 cells that were pre-incubated with compounds. Infected hepatocytes emit light due to the luciferase reaction. Assay results are presented as the percent inhibition of light emission compared to control. […]. Particulars: sporozoite; for IC90: read-out: LUCIFERASE INFECTION ASSAY - IC90. The class given is functional.

Regarding `Nc1ccccc1SC(CC(=O)c1ccccc1)c1ccc([N+](=O)[O-])cc1` (configuration not stated), the 90% effect concentration (IC90) (in general, the concentration at which the effect reaches the 90% level) was over 8.72 µM. Besides, the IC50 – broadly, the concentration that gives 50% inhibition – (PBLUC_HILL_SLOPE 4.35, PBLUC_R_SQUARED 0.338, read-out: LUCIFERASE INFECTION ASSAY - IC50) stood at 8.12 µM.
As for `NC(c1csc(Nc2ccc(C(F)(F)F)cn2)n1)C1CCCCC1` (configuration not stated), the 90% effect concentration (IC90) was over 9.26 µM. Also, for the setting “PBLUC_HILL_SLOPE 4.28, PBLUC_R_SQUARED 0.42, read-out: LUCIFERASE INFECTION ASSAY - IC50”, the IC50 was 7.59 µM.
As to `CN1/C(=C\C=N\NC(=O)c2cccnc2)C(C)(C)c2ccccc21`, the concentration for an effect of 90% (IC90) was over 10 µM. The IC50 (PBLUC_HILL_SLOPE 4.32, PBLUC_R_SQUARED 0.562, read-out: LUCIFERASE INFECTION ASSAY - IC50) came to 7.23 µM.
Consider `CNC(=O)CNc1nc(-c2ccccn2)nc2scc(-c3ccccc3)c12`, for which the IC90 worked out at 7.43 µM. In addition, the IC50 (PBLUC_HILL_SLOPE 4.47, PBLUC_R_SQUARED 0.505, read-out: LUCIFERASE INFECTION ASSAY - IC50) was 4.55 µM.
As for `OC(c1cc(F)c(F)c(F)c1)c1nnc(Nc2cc(C(F)(F)F)ccc2F)s1` (configuration not stated), the concentration for an effect of 90% (IC90) was 7.5 µM. In addition, under “PBLUC_HILL_SLOPE 4.45, PBLUC_R_SQUARED 0.324, read-out: LUCIFERASE INFECTION ASSAY - IC50”, the 50% inhibitory concentration (IC50) turned out to be 4.58 µM.
For the compound `Cc1ccc(C(NCC(=O)Nc2sccc2C(N)=O)c2cccs2)cc1` (configuration not stated), the 90% effect concentration (IC90) amounted to 3.67 µM. Besides, under “PBLUC_HILL_SLOPE 4.31, PBLUC_R_SQUARED 0.32, read-out: LUCIFERASE INFECTION ASSAY - IC50”, the 50% inhibitory concentration (IC50) was found to be 2.2 µM.
`COc1cccc(CN2CCc3c(c(C(=O)NCCCc4ccccc4)nn3Cc3ccncc3)C2)c1`: the concentration for an effect of 90% (IC90) was 5.47 µM. For the same compound, the 50% inhibitory concentration (IC50) (PBLUC_HILL_SLOPE 4.39, PBLUC_R_SQUARED 0.179, read-out: LUCIFERASE INFECTION ASSAY - IC50) stood at 3.31 µM.
Consider `CC(C)(C)c1ccc(-c2cnc3cnc(-c4ccc(C(=O)N5CCOCC5)cc4)cn23)cc1`, for which the 90% effect concentration (IC90) is over 7.49 µM. In addition, the half-inhibitory concentration (IC50) (PBLUC_HILL_SLOPE 4.5, PBLUC_R_SQUARED 0.623, read-out: LUCIFERASE INFECTION ASSAY - IC50) was determined as 4.7 µM.
As for `Cc1ccc2nc(NC(=O)C(C)Oc3ccccc3)c(C(=O)NC3CCCC3)n2c1` (configuration not stated), the concentration for an effect of 90% (IC90) was determined as 6.95 µM. The IC50 (PBLUC_HILL_SLOPE 4.38, PBLUC_R_SQUARED 0.362, read-out: LUCIFERASE INFECTION ASSAY - IC50) was 4.21 µM.
On to `COc1ccc(-c2cnc3ccc(N[C@H](CO)C(C)C)nn23)cn1`, for which the IC90 was determined as 4.4 µM. In addition, the IC50 (PBLUC_HILL_SLOPE 4.47, PBLUC_R_SQUARED 0.471, read-out: LUCIFERASE INFECTION ASSAY - IC50) was determined as 2.69 µM.
`CCCn1c(NC(=O)c2cccnc2OCC)nc2ccccc21`: the IC90 was over 10 µM. In addition, the half-inhibitory concentration (IC50) (PBLUC_HILL_SLOPE 4.52, PBLUC_R_SQUARED 0.28, read-out: LUCIFERASE INFECTION ASSAY - IC50) is 7.59 µM.
As to `COC(=O)c1c(NC(=O)c2ccco2)c2cc(NC3CCN(C(C)C)CC3)cnc2n1CCC(C)C`, the concentration for an effect of 90% (IC90) is over 6.66 µM. The IC50 (PBLUC_HILL_SLOPE 4.28, PBLUC_R_SQUARED 0.61, read-out: LUCIFERASE INFECTION ASSAY - IC50) came to 4.64 µM.
With `CC(Oc1ccc(Cl)cc1Cl)C(=O)Nc1nc(-c2c[nH]c(C(N)=O)c2)cs1` (configuration not stated), the 90% effect concentration (IC90) came to 2.99 µM. The concentration for half-maximal inhibition (IC50) (PBLUC_HILL_SLOPE 4.28, PBLUC_R_SQUARED 0.703, read-out: LUCIFERASE INFECTION ASSAY - IC50) worked out at 1.79 µM.
Regarding `Cn1cc(-c2cn3c(-c4ccc(C#N)cc4)cnc3cn2)cn1`, the 90% effect concentration (IC90) was over 11 µM. Moreover, the concentration for half-maximal inhibition (IC50) (PBLUC_HILL_SLOPE 4.44, PBLUC_R_SQUARED 0.515, read-out: LUCIFERASE INFECTION ASSAY - IC50) came to 9.55 µM.
Take `N#Cc1ccc(-c2cnc3cnc(/C=C/c4ccccc4)cn23)cc1`: the 90% effect concentration (IC90) is 1.49 µM. The IC50 (PBLUC_HILL_SLOPE 4.44, PBLUC_R_SQUARED 0.805, read-out: LUCIFERASE INFECTION ASSAY - IC50) was 0.909 µM.
As to `O=C(Nc1nc(-c2ccccn2)cs1)c1nn(-c2ccc(F)cc2)c2c1CCCC2`, the concentration for an effect of 90% (IC90) came to 8.94 µM. Also, for the setting “PBLUC_HILL_SLOPE 4.43, PBLUC_R_SQUARED 0.595, read-out: LUCIFERASE INFECTION ASSAY - IC50”, the IC50 is 5.45 µM.
Consider `CCOc1cc(/C=C/C(=O)c2ccc3c(c2)OCCO3)cc(Br)c1OCC(=O)N(C)C`, for which the 90% effect concentration (IC90) came to 9.9 µM. Besides, the IC50 (PBLUC_HILL_SLOPE 4.45, PBLUC_R_SQUARED 0.571, read-out: LUCIFERASE INFECTION ASSAY - IC50) turned out to be 6.04 µM.
As to `Oc1c(Br)cc(Cl)cc1/C=C/c1ccc2cccc(O)c2n1`, the IC90 was over 8.76 µM. Also, under “PBLUC_HILL_SLOPE 4.36, PBLUC_R_SQUARED 0.823, read-out: LUCIFERASE INFECTION ASSAY - IC50”, the IC50 was found to be 5.59 µM.
In the case of `CS(=O)(=O)c1ccc(-c2cnc3c(NC=O)cc(-c4ccccc4)cn23)cc1`, the 90% effect concentration (IC90) is over 8.43 µM. Further, for the setting “PBLUC_HILL_SLOPE 4.26, PBLUC_R_SQUARED 0.756, read-out: LUCIFERASE INFECTION ASSAY - IC50”, the half-inhibitory concentration (IC50) was 6.43 µM.
In the case of `CCOc1cccc(-c2cn3c(-c4ccc(C#N)cc4)cnc3cn2)c1`, the 90% effect concentration (IC90) was over 9.69 µM. Also, the IC50 (PBLUC_HILL_SLOPE 4.27, PBLUC_R_SQUARED 0.47, read-out: LUCIFERASE INFECTION ASSAY - IC50) turned out to be 6.18 µM.
In the case of `CC(C)Cc1nc2oc3c(NCCO)ncnc3c2c2c1CCCC2`, the IC90 is over 9.69 µM. The IC50 (PBLUC_HILL_SLOPE 4.31, PBLUC_R_SQUARED 0.188, read-out: LUCIFERASE INFECTION ASSAY - IC50) is 6.98 µM.
On to `CCN(c1ccccc1)S(=O)(=O)c1cc(-c2oc3ccc(F)cc3c(=O)c2C)ccc1C`, for which the concentration for an effect of 90% (IC90) is over 10 µM. In addition, the 50% inhibitory concentration (IC50) (PBLUC_HILL_SLOPE 4.38, PBLUC_R_SQUARED 0.421, read-out: LUCIFERASE INFECTION ASSAY - IC50) was determined as 6.53 µM.
As for `CCOc1cc(C2NCC(c3ccccc3)c3c2[nH]c2ccccc32)ccc1OCC(C)C` (configuration not stated), the IC90 was over 10 µM. Also, the IC50 (PBLUC_HILL_SLOPE 4.52, PBLUC_R_SQUARED 0.531, read-out: LUCIFERASE INFECTION ASSAY - IC50) is 6.16 µM.
In the case of `CCNC(=O)c1cccc(Nc2ccc(C(=O)c3ccccc3)cc2)c1`, the 90% effect concentration (IC90) came out at 8.6 µM. In addition, under “PBLUC_HILL_SLOPE 4.36, PBLUC_R_SQUARED 0.612, read-out: LUCIFERASE INFECTION ASSAY - IC50”, the half-inhibitory concentration (IC50) turned out to be 5.2 µM.
With `COc1ccc(Nc2nccc3[nH]c(-c4cccc(F)c4)cc23)cc1O`, the 90% effect concentration (IC90) is over 10 µM. Moreover, the IC50 (PBLUC_HILL_SLOPE 4.51, PBLUC_R_SQUARED 0.135, read-out: LUCIFERASE INFECTION ASSAY - IC50) came out at 9.39 µM.
On to `CC(C)N(CCNC(=O)c1ccc(CSc2nc3ccccc3s2)cc1)C(C)C`, for which the IC90 stood at 9.07 µM. For the same compound, the half-inhibitory concentration (IC50) (PBLUC_HILL_SLOPE 4.35, PBLUC_R_SQUARED 0.48, read-out: LUCIFERASE INFECTION ASSAY - IC50) was 5.47 µM.
In the case of `CC(C)c1cccc(-c2ccc3nnc(-c4cccc(Cl)c4)n3c2)c1`, the IC90 was over 10 µM. Besides, for the setting “PBLUC_HILL_SLOPE 4.48, PBLUC_R_SQUARED 0.207, read-out: LUCIFERASE INFECTION ASSAY - IC50”, the IC50 amounted to 6.48 µM.
For `CCN1C(=O)N(Cc2cccc(OC)c2)C(=O)C12CCN(Cc1cn(C)c3ccccc13)CC2`, the 90% effect concentration (IC90) was over 7.16 µM. For the same compound, for the setting “PBLUC_HILL_SLOPE 4.47, PBLUC_R_SQUARED 0.0939, read-out: LUCIFERASE INFECTION ASSAY - IC50”, the IC50 is 6.08 µM.
For `CCCOc1ccc(/C=N/NC(=S)NCCCN2CCOCC2)c(OCCC)c1`, the 90% effect concentration (IC90) was over 10 µM. For the setting “PBLUC_HILL_SLOPE 4.29, PBLUC_R_SQUARED 0.235, read-out: LUCIFERASE INFECTION ASSAY - IC50”, the IC50 worked out at 8.13 µM.
For the compound `CCCCCC(/C=N/Nc1nncc2ccccc12)=C\c1ccccc1`, the 90% effect concentration (IC90) is 9.96 µM. Moreover, the IC50 (PBLUC_HILL_SLOPE 4.26, PBLUC_R_SQUARED 0.663, read-out: LUCIFERASE INFECTION ASSAY - IC50) was 5.95 µM.
With `CCN1C(=O)N(CCc2ccccc2)C2(CCN(Cc3ccc(C)cc3)CC2)C1=O`, the concentration for an effect of 90% (IC90) is over 8.14 µM. For the same compound, the IC50 (PBLUC_HILL_SLOPE 4.45, PBLUC_R_SQUARED 0.239, read-out: LUCIFERASE INFECTION ASSAY - IC50) was 6.04 µM.
With `CN(CCOc1ccc(Br)cc1)C(=O)c1[nH]nc2ccccc12`, the IC90 was over 10 µM. The IC50 (PBLUC_HILL_SLOPE 4.37, PBLUC_R_SQUARED 0.302, read-out: LUCIFERASE INFECTION ASSAY - IC50) came out at 6.76 µM.
For the compound `COCOc1ccc(-c2cc(-c3cccc(NC(C)=O)c3)cnc2N)cc1`, the IC90 came to 5.97 µM. Further, the IC50 (PBLUC_HILL_SLOPE 4.33, PBLUC_R_SQUARED 0.629, read-out: LUCIFERASE INFECTION ASSAY - IC50) stood at 3.59 µM.
Take `O=[N+]([O-])c1ccc(C2Nc3ccc(F)cc3N2)s1` (configuration not stated): the IC90 stood at 6.65 µM. Also, the IC50 (PBLUC_HILL_SLOPE 4.41, PBLUC_R_SQUARED 0.496, read-out: LUCIFERASE INFECTION ASSAY - IC50) turned out to be 4.04 µM.
For `COc1ccc2nc3cc(Cl)ccc3c(N(C)CCc3ccc(OC)c(OC)c3)c2c1`, the IC90 was 0.33 µM. Besides, the concentration for half-maximal inhibition (IC50) (PBLUC_HILL_SLOPE 4.42, PBLUC_R_SQUARED 0.447, read-out: LUCIFERASE INFECTION ASSAY - IC50) worked out at 0.201 µM.
For `COc1cc(-c2cc(-c3cc(OC)c(OC)c(OC)c3)cnc2N)ccc1O`, the 90% effect concentration (IC90) was determined as 6.84 µM. The half-maximal inhibitory concentration (IC50) (PBLUC_HILL_SLOPE 4.32, PBLUC_R_SQUARED 0.78, read-out: LUCIFERASE INFECTION ASSAY - IC50) was found to be 4.12 µM.

For the origin of these results see ChEMBL document CHEMBL4483862, “Open-source discovery of chemical leads for next-generation chemoprotective antimalarials” (2018).
